From a melting point compilation (Tetko et al.; mined from patent text by program, amines drawn as free bases though some values may be those of a salt) come the findings set out here.

Structures are written as SMILES.

As a reminder, the melting point is the temperature, or range, at which the solid turns liquid. On to `CCC(C)N(C)C(=O)c1cc(-c2ccccc2Cl)c2sccc2c1` (stereo unspecified), for which the melting point was 98 °C.
For `COC(=O)COc1cccc2c(CCO)c(CCOC(C)=O)oc12` the value was 80 to 81 °C; for `COc1c(C2CCN(CCCCNC(=O)c3sc(-c4ccc(C(F)(F)F)cc4)nc3CO)CC2)ccc2c1CCCC2`, 179 to 180 °C.
The figure for `COc1ccc2c(c1)C(Cl)c1ccccc1CO2` (stereo unspecified) is 133 to 134 °C.
In the case of `NS(=O)(=O)c1sc(Cl)cc1C(=O)CBr`, the melting point is 147 to 148 °C.
With `CCCSP(=O)(OCC)Oc1ccc2cc3ccccc3cc2c1` (stereo unspecified), the melting point is 79 to 83 °C.
Turning to `COC(=O)N1c2ccccc2Sc2nccnc21`, the melting point lay within 137 to 138 °C.
For `CCCCC(=O)NC(C(=O)OCC)=C(N)SCC` the value was 110 °C; for `CC(=O)Nc1ccc(Nc2c(NCc3ccco3)cc(C(=O)O)cc2S(=O)(=O)Nc2ccccc2NC(C)=O)cc1`, 258 °C; for `O=S(=O)(c1ccccc1)n1cc(CCOC2OC(CO)CC(O)C2O)c2ccccc21` (stereo unspecified), 64 to 65 °C.
`O=C(CCN1CCOCC1)Nc1cc(-c2nnc(SCc3cccc(F)c3)o2)ccn1` came in with a melting point of 149 to 150 °C.
For `CCC(CC)Oc1cc(C)nc(Nc2c(C)cc(C)cc2C)c1C(=O)C#N` the value was 108 to 110 °C; for `NN1C=NNC1=Cc1ccccc1`, 171 to 173 °C; for `CCOC(=O)c1cn(C(=O)c2ccccc2)c2sc(-c3ccc(OC)cc3)c(C)c2c1=O`, 110 to 112 °C.
For `CCNC(=O)Cn1c(=O)c(=O)[nH]c2ccc3ccc(-n4c(C)ccc4C)cc3c21` the value was greater than 285 °C; for `NS(=O)(=O)c1ccc(-c2noc(-c3cnn4c(C(F)(F)F)cc(-c5ccc(Cl)cc5)nc34)n2)s1`, 294 °C; for `CCOC(=O)c1c(C)cc(C(=O)O)c(NC(C)=O)c1C`, 164 °C.
For `CC1=CC(C)(C)C=C(O)C1` the value was 46 °C.
Turning to `COC(=O)c1ccc(F)c2c1CC(N(CCCc1c[nH]c3ccc(F)cc13)C1CCC1)CO2` (stereo unspecified), the melting point stood at 110 °C.
For `C[C@H](Cc1ccc2oc(C(=O)O)cc2c1)NC[C@H](O)c1csc(C(F)(F)F)n1` the value was 168 to 171 °C; for `NN1CCC(Cc2ccc(Cl)cc2)CC1`, 49 to 51 °C.
The figure for `COC(=O)c1cc(C(C)C)sc1NC(=O)Nc1ccc(C)cc1` is 49 to 51 °C; for `CCOC(=O)C1=C(C)S(=O)CCS1(=O)=O` (stereo unspecified) it is 138 to 140 °C; for `CC1(C)CCC(C)(C)c2cc(C(C)(O)C(=O)O)ccc21` (stereo unspecified) it is 149 to 150 °C.
For `CCCCc1nc(=O)n2nc(-c3ccc(F)cc3)cc2[nH]1` the value was 238 °C; for `COc1c2c(cc3c1OCO3)C(OC(C)=O)CN(C)C2` (stereo unspecified), 109 to 110 °C; for `Clc1ccc(C#CCBr)cc1`, 41 to 43 °C.
In the case of `CC(C)n1c(=O)c(=O)[nH]c2cccnc21`, the melting point lay within 246 to 247 °C.
The compound `Cc1ccc(CCC(=O)CC(=O)CCc2ccc(C)cc2)cc1` gave a melting point of 45.6 to 46.8 °C.
As for `CCOCc1nc2c(N)nc3ccccc3c2n1CC1CC(c2ccccc2)=NO1` (stereo unspecified), the melting point is 235 to 237 °C.
The figure for `CC(=O)OC1CCCc2cnc3cc(OCc4ccccc4)ccc3c21` (stereo unspecified) is 70 to 72 °C; for `CCOC(=O)CCCOc1cccc2cc(/C(C)=C/C(=O)Nc3ccc(OC)cc3)oc12` it is 141 to 142 °C; for `COc1ccc(COc2cccc(C=O)c2)cc1` it is 78 °C.
For `OC1CSC(Oc2cccnc2-c2ccc(OC(F)(F)F)cc2)C(O)C1O` (stereo unspecified) the value was 114 to 119 °C; for `CSC(=N)Nc1nc(C(C)(C)C)c(O)c(C(C)(C)C)n1`, 163 to 165 °C.
With `CC(=O)O[C@H]1CCCNC1=O`, the melting point fell in the range of 77 to 78 °C.
The figure for `COc1ccc(Br)c(-c2nc(=S)n(Cc3ccccc3)[nH]2)c1` is 154 to 155 °C; for `O=C(O)COc1cc(C(=O)O)ccc1NC(=O)NC(=O)c1ccc(F)cc1Cl` it is 279 to 281 °C; for `Nc1cc(Cl)c(Sc2ccc(C(F)(F)F)cc2Cl)cc1F` it is 80.8 °C.
On to `CCn1ncc2c1ncc1c(=O)n(C)c3cc(C)nn3c12`, for which the melting point lay in the range of 206 to 207 °C.
`Cc1nc(-c2ccc(C(F)(F)F)cc2)sc1CN(C)c1ccc(OCC(=O)O)c(C(F)(F)F)c1` showed a melting point of 180 to 181 °C.
For `CC1(C)OCC(CONC(=O)c2ccc(F)c(F)c2Nc2ccc(I)cc2F)O1` (stereo unspecified) the value was 114 to 115 °C; for `CN1CC=C(c2cccc3ccc(N(Cc4ccccc4)Cc4ccccc4)cc23)CC1`, 124 to 126 °C; for `CCOC(=O)CCc1cnn2c(N(C)c3ccccc3)ncnc12`, 74 °C.
For `O=C(NCCO)c1ccc2c3c(cc([N+](=O)[O-])c2c1)NCC3CCl` (stereo unspecified) the value was 150 to 151 °C.
For `O=C(O)COCc1cc(Br)ccc1C(=O)O` the value was 194 to 196 °C; for `CC(=O)OC1CSC(Oc2cncc(-c3ccc(CO)cc3)c2)C(OC(C)=O)C1OC(C)=O` (stereo unspecified), 132 to 133 °C.
`Cc1ccc(-c2cc3ncnc(Nc4ccc5[nH]ccc5c4)c3s2)cc1` returned a melting point of 200 to 220 °C.
The figure for `CC(=O)N1CCN(c2nc(N)ncc2Oc2ccc(Cl)cc2)CC1` is 153 to 157 °C; for `Cn1c(N)c2ncn(C3OC(CO)C(O)C3O)c2nc1=O` (stereo unspecified) it is 262 to 263 °C.
`CONC(=N)c1ccc(-c2ccc(-c3ccc(C(=N)NOC)nc3)o2)cc1`: the melting point lay within 235 to 237 °C.
For `CCOC(=O)C1=C(C)NC(C)=C(C(=O)OCCSc2ccccc2)C1C` (stereo unspecified) the value was 143 to 145 °C; for `Cc1csc(C2=NOCCO2)c1Br`, 67 °C; for `CN1CCCc2cc(C(C)(C(=O)O)c3ccc4c(c3)CCCN4C)ccc21`, 155 to 157 °C.
`O=c1[nH]c2ccc(S(=O)CCN3CCC(Cc4ccc(Cl)cc4)CC3)cc2o1` (stereo unspecified) showed a melting point of 213 to 214 °C.
Compound `COc1ccc(N2CCN(c3ccc(OC)nc3-c3ccc(N(C)C)cc3)CCC2=O)cc1` showed a melting point of 192 to 193 °C.
Regarding `CN1CCC(Oc2cc3ccccc3cc2C(N)=O)C1` (stereo unspecified), the melting point was in the range of 128 to 130 °C.
The figure for `C1COCCOCCNCCOCC2(COCCN1)COC2` is 147 to 150 °C; for `O=C(O)CC=CCC(=O)NCCc1ccccc1` it is 101 to 103 °C; for `CC(c1ccccc1)n1cncc1C#N` (single isomer, unassigned; (+)) it is 97 to 99 °C.
The figure for `Oc1ccc(CC2CC2(Cl)Cl)cc1` (stereo unspecified) is 57 to 62 °C.
Compound `CN1C[C@H](CCN2CCN(C(c3ccccc3)c3ccccc3)CC2)C=C2c3cccc4[nH]cc(c34)C[C@H]21` registered a melting point of 165 to 169 °C.
Compound `O=C/C=C/c1cc2cc(Cl)ccc2[nH]1` gave a melting point of 207 to 209 °C.
The figure for `CSCC[C@@H]1C(=O)N(C)[C@H]([C@H](C)c2cccc3ccccc23)C(=O)N1C` is 88 to 90 °C.
The figure for `Cc1cc(Br)cnc1CCCCNC1=NS(=O)(=O)c2ccccc21` is 232 to 244 °C; for `CC(=O)OC1CCC2(C)C(=CCC3C2CCC2(C)C(C(C)CCCC(C)(C)C)CCC32)C1` (stereo unspecified) it is 152 to 153 °C.
Consider `CCOC(=O)C1=C(C)Nc2c(C(=O)OCC)ncn2C1c1cccc([N+](=O)[O-])c1` (stereo unspecified), for which the melting point fell in the range of 160 to 162 °C.
For `CNC(Cc1ccccc1)C(=O)N[C@@H](Cc1cccc2ccccc12)C(=O)O` (stereo partly specified) the value was 104 to 107 °C; for `COc1ccc(CCNC(=O)C(F)(F)F)cc1C=O`, 105 to 106 °C.
`CCCCCCCCCCC[C@@H](C[C@@H]1OC(=O)[C@H]1CCCCCC)OCCC(N)=O` showed a melting point of 35 °C.
For `N=C(Cc1ccccc1-n1cnc2cnc3ccc(-c4ccccc4)cc3c21)NO` the value was 253 to 254 °C; for `CC(C)Oc1ccc(OCc2ccccc2)cc1-c1nc2cc(C=O)cnc2[nH]1`, 170 to 171 °C.
With `COc1ccccc1COC(=O)C(O)CNCCc1ccc(OC)c(OC)c1` (stereo unspecified), the melting point was 79.5 to 82.5 °C.
For `O=[N+]([O-])c1ccc2nc(N3CCNCC3)cc(Cl)c2c1` the value was 175 to 177 °C; for `COc1ccc2[nH]c3c(c2c1)CC(OC(=O)c1ccccc1)CC3` (stereo unspecified), 135 to 141 °C; for `O=C(O)COc1cccc2c1CCC(CNC(=O)OC(c1ccccc1)c1ccccc1)C2` (stereo unspecified), 160 to 161 °C.
For the compound `CSCc1ccc(C(=O)c2ccc(Cl)cc2)cc1`, the melting point lay within 59 to 61 °C.
The figure for `Cc1oc(-c2ccccc2)nc1COc1ccc(CCCC#N)cc1` is 73 to 74 °C; for `CCOC(=O)CCCCCNc1ccccc1` it is 34 to 37 °C.
For `CCOC(=O)c1cnc2c(c(C)nc3cc(C)nn32)c1N1CCCCC1` the value was 161 to 163 °C.
For `N#CCCN1CCC(C2(c3ccc(F)cc3)OCCO2)CC1` the value was 107 to 109 °C; for `Nc1ccc(-c2nnc(-c3ccccn3)nn2)nc1`, 207 to 209 °C; for `CC(C)c1nccn1-c1nc(-c2ccc(Cl)cc2)c(CCC(=O)O)o1`, 173 to 174 °C.
In the case of `O=C(O)c1ccc(NC(=O)C(F)(F)F)nc1`, the melting point is greater than 255 °C.
For `CCOC(=O)c1sc(NC(C)=O)nc1CCc1ccc(NC(=O)OC(C)(C)C)cc1`, the melting point fell in the range of 213 to 214 °C.
`C[Si](C)(C)N1CCCCCN([Si](C)(C)C)CCN([Si](C)(C)C)CC1`: the melting point fell in the range of 78 to 86.5 °C.
`O=C(CCC12CCC(=O)N1C(=O)CC2)OCc1ccc(Cl)cc1` had a melting point of 141 to 142 °C.
`CC(C)(C)OC(=O)N1CC(NS(=O)(=O)c2ccc(Oc3ccccc3)cc2)C(SC(C)(C)C)C1` (stereo unspecified): the melting point was in the range of 85 to 86 °C.
The figure for `CCN(CC)CCOc1ccc(CCNC(=O)c2ccc(-c3ccc(Cl)cc3)cc2)cc1` is 178 to 179 °C; for `COc1ccc(C)cc1NC(=O)Nc1ccc(N2CCN(C(=O)Oc3ccc(CCO)cc3Cl)CC2)cc1` it is 189 to 190 °C; for `O=C1CCC2(CC1)CC(=O)NC2=O` it is 154 °C.
